Reference: patent US10201530B2, “Treatment of BRCA1-defective cancer or resistant cancers” (City of Hope, priority 2014, dated 2019)

How the values were obtained:
[1] = system: DNA damage checkpoint proteins (ATM, CHK1, CHK2, γ-H2AX); test: DNA damage checkpoint proteins by Western blot; type: cell-based, human
Description: For subcellular fractionation, cells were trypsinized and washed with cold PBS solution twice. After centrifugation at 1,200 g for 5 min, cells were incubated in buffer (50 mM HEPES, pH 7.5, 150 mM NaCl, 1 mM EDTA) containing 0.2% NONIDET™ P-40 (NP-40), supplemented with protease inhibitors (5 μg/ml each of pepstatin, leupeptin, and aprotinin) and phosphatase inhibitors on ice for 5 min. Following centrifugation at 1,000 g for 5 min, the supernatant was collected (i.e., cytoplasmic fraction) and pellets were washed with the same buffer twice. The washed samples were extracted for 40 min on ice with fractionation buffer containing 0.5% NP-40 for nuclear fraction. All the samples were sonicated and clarified by centrifugation at 16,000 g for 15 min. Protein concentrations of all fractions were determined with Bio-Rad Protein Assay (Bio-Rad Laboratories, Hercules, Calif.). Immunoblotting was performed as described previously (21,22). Briefly, equal amounts of boiled protein samples were subjected to SDS-polyacrylamide gel electrophoresis (PAGE) and transferred onto nitrocellulose membranes (Bio-Rad Laboratories). Membranes were blocked for 1 hour in 3% BSA in Tris buffered saline containing 0.05% Tween 20 (TBST) and incubated for 1 hour with primary antibody (1:500 or 1:1000) diluted in TBST containing 1% BSA. After two washes with TBST, membranes were incubated for 1 hour with horseradish peroxidase-conjugated secondary Abs (1:3000 dilution) at room temperature. The immunoblots were visualized on film with the West-Q chemi-luminescence kit (GenDEPOT, Barker, Tex.).

HCC1937 = test: Cytotoxicity, HCC1937 cells; type: cell-based, human; conditions: Homo sapiens; HCC1937, triple negative, BRCA1 mutant; COH29 72 h
Description: (§1) All cell lines were acquired from the American Type Culture Collection (Manassas, Va., USA). Cells were maintained in RPMI 1640 medium (Mediatech) with 10% fetal bovine serum, 2 mM glutamine, and 100 U of penicillin and 100 μg of streptomycin per ml of medium (Sigma) at 37° C. in 5% CO2. To isolate HCC1437+BRCA1 cells, parental HCC1937 cells were transfected with pcDNA3.1 plasmid expressing full-length BRCA1 cDNA. Stable transfectant clones were selected and used for drug sensitivity assays. For stable transfection, cells at 30-40% confluence were incubated overnight with […] of plasmid DNA, using FUGENE® 6 transfectin reagent (Roche Molecular Biochemical, Monza, Italy) according to the manufacturer's instructions. Cells were then selected in puromycin (1 μg/ml) (Invitrogen life Technologies, La Jolla, Calif., USA.) After 20 to 30 days, viable puromycin-resistant colonies from HCC1937 transfections were expanded and screened. The clones that stably expressed […] and retained growth potential were assayed for BRCA1 expression by Western blot analysis. By Western blot analysis, we evaluated the restoration of BRCA1 expression in the puromycin-resistant cDNA/transfectant cells.
The MTT cytotoxicity assay was performed by incubating with MTT and monitoring the MTT formazan formed by viable cells with a microplate reader at a wavelength of 560 nm; the survival, ratio was determined using the formula: (Atest−Ablank)/(Acontrol−Ablank)×100%. The cytotoxicity was determined in 96-well plates using the semiautomatic fluorescence-based Digital Imaging Microscopy System (DIMSCAN). DIMSCAN uses digital imaging microscopy to quantify viable cells, which selectively accumulate FDA (fluorescein diacetate; Alfa Aesar, Ward Hill, Mass.). DIMSCAN is capable of measuring cytotoxicity over a 4 log dynamic range by quantifying total fluorescence per well (which is proportional to the number of viable cells) after elimination of the background fluorescence by digital thresholding and eosin Y (Mallinckrodt Baker, Center Valley, Pa.) quenching. […]

MDA-MB-231 = test: Cytotoxicity, MDA-MB-231 cells; type: cell-based, human; conditions: Homo sapiens; MDA-MB-231, TNBC; read-out: IC50, mean ± SEM
Description: as §1
(§2) The MTT cytotoxicity assay was performed by incubating with MTT and monitoring the MTT formazan formed by viable cells with a microplate reader at a wavelength of 560 nm; the survival, ratio was determined using the formula: (Atest−Ablank)/(Acontrol−Ablank)×100%. The cytotoxicity was determined in 96-well plates using the semiautomatic fluorescence-based Digital Imaging Microscopy System (DIMSCAN). DIMSCAN uses digital imaging microscopy to quantify viable cells, which selectively accumulate FDA (fluorescein diacetate; Alfa Aesar, Ward Hill, Mass.). DIMSCAN is capable of measuring cytotoxicity over a 4 log dynamic range by quantifying total fluorescence per well (which is proportional to the number of viable cells) after elimination of the background fluorescence by digital thresholding and eosin Y (Mallinckrodt Baker, Center Valley, Pa.) quenching. Cells were seeded into 96-well plates in 100 μL of complete medium at 2,000 to 5,000 cells per well depending on cell line growth rate. After overnight incubation, test compound was added to each well at various concentrations in 50 μL of culture medium. After incubation with the drugs for 96 hours at 37° C., FDA (final concentration: 10 mg/mL) and eosin Y [final concentration: 0.1% (w/v)] were added to each well and the cells were incubated for an additional 20 minutes at 37° C. Total fluorescence per well was then measured using DIMSCAN, and the results were expressed as the ratio of the fluorescence in treated wells to the fluorescence in untreated wells (survival fraction).

[2] = more potent than HU, ref (6); cited from earlier work
UWB1.289 + BRCA1 = test: Cytotoxicity, UWB1.289+BRCA1 cells; type: cell-based, human; conditions: Homo sapiens, UWB1289; UWB1.289 + BRCA1 (WT); COH29 72 h; read-out: IC50, mean ± SEM
Description: as §1
as §2, with “After incubation with the drugs for 96 hours at 37° C., FDA (final concentration: 10 mg/mL) and eosin Y [final concentration: 0.1% (w/v)] were added to each well and the cells were incubated for an additional 20 minutes at 37° C.” left out

OV90 = test: Cytotoxicity (MTT/DIMSCAN), OV90 cells; type: cell-based, human; conditions: Homo sapiens, OV-90; OV90, wild-type BRCA1 ovarian cancer cells; COH29 72 h; read-out: IC50, mean ± SEM
Description: as §1
as §2, with “After incubation with the drugs for 96 hours at 37° C., FDA (final concentration: 10 mg/mL) and eosin Y [final concentration: 0.1% (w/v)] were added to each well and the cells were incubated for an additional 20 minutes at 37° C.” left out

O=C(Nc1nc(-c2ccc(O)c(O)c2)c(-c2ccccc2)s1)c1ccc(O)c(O)c1 [COH29]
γ-H2AX level ([1]; MCF7 and MCF-7 p53−/− cells): increase in the γ-H2AX level
DNA damage checkpoint activation (phosphorylation of ATM, CHK1, CHK2) ([1]; MCF7 cells, wild-type p53): activated the DNA damage checkpoint
DNA damage checkpoint proteins (ATM, CHK1, CHK2) modification ([1]; MCF-7 p53−/− cells): similarly modified
IC50 (HCC1937): 7.25 ± 0.64 µM
IC50 (MDA-MB-231): 9.7 ± 1.52 µM
potency relative to HU [2]: 20 fold
IC50 (UWB1.289 + BRCA1): 23.5 ± 2.38 µM
IC50 (OV90): 31.6 ± 3.35 µM
